From PMC11106739, “Discovery and Derivatization of Tridecaptin Antibiotics with Altered Host Specificity and Enhanced Bioactivity” (ACS Chemical Biology, 2024)
≈ marks a conversion by molar mass, not a printed value. Where a SMILES comes first, the peptide text is derived from it. [ ]: non-standard residue; d: D form. The star is where a group is joined. d(aIle) = CC[C@H](C)[C@@H](N)C(=O)O; dDab = NCC[C@@H](N)C(=O)O; Octanoyl = CCCCCCCC(=O)*; Dab = NCC[C@H](N)C(=O)O

Experiments:
S. aureus 1126387 = type: cell-based, Staphylococcus aureus; details: 1126387, 20 h
In short: (§1)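 Overnight agar cultures grown at 35 °C were suspended to 0.5 McFarland, then diluted 200-fold into cation-adjusted Mueller Hinton broth. This inoculum was added to compound dilutions (final 0.06–64 μg/mL), incubated 20 h at 35 °C, and the MIC judged visually.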

S. aureus ATCC 29213 [1] = type: cell-based, Staphylococcus aureus; details: ATCC 29213, 20 h
In short: as §1

S. aureus UAMS-1625 = type: cell-based, Staphylococcus aureus; details: S. aureus UAMS-1625 (BV18); CLSI broth dilution, cation-adjusted Mueller Hinton broth, 20 h, 35 °C, read visually
In short: as §1

ATCC 25922 = type: cell-based, Enterococcus faecalis; details: ATCC 25922, 20 h
In short: as §1

E. faecalis ATCC 29212 = type: cell-based, Enterococcus faecalis; details: ATCC 29212, 20 h
In short: as §1

E. faecium ATCC 51559 = type: cell-based, Enterococcus faecium; details: ATCC 51559, 20 h
In short: as §1

E. faecium IHMA 890472 = type: cell-based, Enterococcus faecium; details: IHMA 890472, 20 h
In short: as §1

A. baumannii ATCC 17978 = type: cell-based, Acinetobacter baumannii; details: ATCC 17978, 20 h
In short: as §1

A. baumannii HUMC1 = type: cell-based, Acinetobacter baumannii; details: HUMC1, 20 h
In short: as §1

A. baumannii IHMA 777621 = type: cell-based, Acinetobacter baumannii; details: IHMA 777621, 20 h
In short: as §1

E. coli 1214245 = type: cell-based, Escherichia coli; details: 1214245, 20 h
In short: as §1

E. coli 1220120 = type: cell-based, Escherichia coli; details: 1220120, 20 h
In short: as §1

E. coli ATCC 25922 [2] = type: cell-based, Escherichia coli; details: ATCC 25922, 20 h
In short: as §1

K. pneumoniae 1227947 = type: cell-based, Klebsiella pneumoniae; details: 1227947, 20 h
In short: as §1

K. pneumoniae 1228586 = type: cell-based, Klebsiella pneumoniae; details: 1228586, 20 h
In short: as §1

K. pneumoniae ATCC 13883 = type: cell-based, Klebsiella pneumoniae; details: ATCC 13883, 20 h
In short: as §1

P. aeruginosa 1218019 = type: cell-based, Pseudomonas aeruginosa; details: 1218019, 20 h
In short: as §1

P. aeruginosa 1226072 = type: cell-based, Pseudomonas aeruginosa; details: 1226072, 20 h
In short: as §1

P. aeruginosa PAO1 = type: cell-based, Pseudomonas aeruginosa; details: PAO1, 20 h
In short: as §1

S. aureus USA300 (MRSA) = type: cell-based, Staphylococcus aureus; details: USA300, 18 h
[3] = test system: Gram-positive lipid II / S. aureus USA300 (MRSA); experiment: Lipid II antagonization assay; type: cell-based, Staphylococcus aureus; details: compound at 8x MIC, 5-fold molar excess of Gram-positive lipid II, MHB with 0.002% polysorbate-80, 37 °C, 18 h, resazurin, triplicates
Method: Laboratory Institute (CLSI) guidelines. Gram-positive lipid II, containing lysine at position 3 of the pentapeptide, was prepared by total chemical synthesis.1,2 Lipid II in 1 : 1 chloroform : methanol (v/v) was added to a polypropylene 96-well plate (5-fold molar excess compared to test antibiotics) and the organic solvent was allowed to evaporate. Oct-TriA5 and vancomycin in MHB (50 µL, 16xMIC) were added to the wells with the 5-fold molar excess of pure Gram-positive lipid II in triplicates and to the control wells without lipid II. Single colony of S. aureus USA300 (MRSA) from a fresh blood agar plate was suspended in TSB and grown to an OD600 of 0.5. The bacterial culture then was diluted in MHB with 0.002% polysorbate-80 to reach 10^6 CFU/mL and 50 µL were mixed with test compounds to achieve the final concentration of 8xMIC for all tested compounds. The plate was incubated at 37°C for 18 h with constant shaking (600 rpm) and subsequently inspected for visible bacterial growth. To visualize the viability of the indicator strain, resazurin sodium salt solution (Merck, Dorset, UK) was added to the cultures to achieve the final concentration of 0.0015% (w/v) and incubated at RT for 1 h.
Figure S4. HPLC trace showing the reinjection of purified Oct-TriD (3). The peptide eluted as a single peak at 17.263 min using the HPLC method A.
Figure S5. […]

S. aureus ATCC 29213 [4] = experiment: LIVE/DEAD staining (SYTO 9 / propidium iodide); type: cell-based, Staphylococcus aureus; details: S. aureus ATCC 29213, 1 × MIC, 15 min, microscopy
Method: (§2) This assay was performed according to a previously described procedure.[55],[56] Briefly, overnight cultures of E. coli ATCC 25922 and S. aureus ATCC 29213 were diluted to an OD600 of 0.2 in MHB and mixed with 1 × MIC of Oct-TriA1, Oct-TriA5, and Oct-TriD. Nisin and polymyxin B were used as positive controls at a concentration of 2-fold MIC. At the same time, green fluorescent nucleic acid stain SYTO 9 (excitation, 450–490 nm; emission, 500–550 nm) and red fluorescent nucleic acid stain propidium iodide (excitation, 574–599 nm; emission, 612–682 nm) (LIVE/DEAD Baclight Bacterial Viability Kit, Invitrogen) were added to the above cell suspensions. After mixing and incubating for 15 min in the dark at RT, cells were briefly sedimented via centrifugation and resuspended in fresh MHB. Then, the cell suspensions were loaded on 1.5% agarose pads and analyzed by a Zeiss Imager M2 microscope. Confocal images were obtained at 4 random locations for each sample and visualized using FIJI version 1.51H.[57]

[5] = test system: Gram-negative ESKAPE pathogens; type: cell-based; details: 20 h
Method: All minimum inhibitory concentrations (MICs) were determined according to the Clinical and Standards Laboratory Institute (CLSI) guidelines. In brief, agar plates were inoculated from glycerol stocks and incubated overnight at 35 °C. Peptide DMSO stocks were dispensed into 96-well round-bottom plates using a TECAN D300e dispenser. Colistin sulfate (Sigma-Aldrich) was dissolved in water and serially diluted in a cation-adjusted Mueller Hinton broth (10 μL per well). Final concentrations of the test compounds were 0.06 to 64 μg/mL. Inocula were prepared by direct colony suspension in NaCl at 0.5 MacFarland, which was further diluted 200-fold in cation-adjusted Mueller Hinton broth for a target inoculum of 2 × 10^5 colony forming units (CFUs)/mL. 100 μL portion of the prepared inoculum was added to each well of the prepared plates containing the test compounds. Plates were sealed with parafilm and incubated for 20 h at 35 °C. Images of all plates were recorded, and MIC was assessed visually.

E. coli ATCC 25922 [6] = experiment: LIVE/DEAD staining (SYTO 9 / propidium iodide); type: cell-based, Escherichia coli; details: E. coli ATCC 25922, tridecaptins at 1 × MIC, polymyxin 4 μg/mL (2 × MIC), 15 min, microscopy
Method: as §2

With CCCCCCCC(=O)N[C@@H](C(=O)N[C@H](CCN)C(=O)NCC(=O)N[C@H](CO)C(=O)N[C@H](Cc1c[nH]c2ccccc12)C(=O)N[C@@H](CO)C(=O)N[C@@H](CCN)C(=O)N[C@H](CCN)C(=O)N[C@@H](Cc1c[nH]c2ccccc12)C(=O)N[C@@H](CCC(=O)O)C(=O)N[C@H](C(=O)N[C@@H](C(=O)N[C@@H](C)C(=O)O)[C@@H](C)CC)C(C)C)C(C)C [Oct-TriA5] (Octanoyl-[dV][dDab]G[dS][dW]S[Dab][dDab]WEV[d(aIle)]A-OH) the MIC (S. aureus 1126387) was 8 µg/mL (≈ 5.13 µM), the MIC (S. aureus ATCC 29213 [1]) was 8 µg/mL (≈ 5.13 µM) and the MIC (S. aureus UAMS-1625) was 8 µg/mL (≈ 5.13 µM). For the same molecule, the MIC (ATCC 25922) was 8 µg/mL (≈ 5.13 µM), the MIC (E. faecalis ATCC 29212) was 8 µg/mL (≈ 5.13 µM) and the MIC (E. faecium ATCC 51559) was 8 µg/mL (≈ 5.13 µM). For the same molecule, the MIC (E. faecium IHMA 890472) was 8 µg/mL (≈ 5.13 µM), the MIC (A. baumannii ATCC 17978) was 4 µg/mL (≈ 2.56 µM) and the MIC (A. baumannii HUMC1) was 8 µg/mL (≈ 5.13 µM). For the same molecule, the MIC (A. baumannii IHMA 777621) was 4 µg/mL (≈ 2.56 µM), the MIC (E. coli 1214245) was 4 µg/mL (≈ 2.56 µM) and the MIC (E. coli 1220120) was 4 µg/mL (≈ 2.56 µM). The MIC (E. coli ATCC 25922 [2]) was 2 µg/mL (≈ 1.28 µM), the MIC (K. pneumoniae 1227947) was 4 µg/mL (≈ 2.56 µM) and the MIC (K. pneumoniae 1228586) was 4 µg/mL (≈ 2.56 µM). It also gave an MIC (K. pneumoniae ATCC 13883) of 4 µg/mL (≈ 2.56 µM), an MIC (P. aeruginosa 1218019) of 4 µg/mL (≈ 2.56 µM) and an MIC (P. aeruginosa 1226072) of 8 µg/mL (≈ 5.13 µM). The MIC (P. aeruginosa PAO1) was 16 µg/mL (≈ 10.3 µM), the MIC (S. aureus USA300 (MRSA)) was 8 µg/mL (≈ 5.13 µM) and the “growth of S. aureus USA300 (MRSA) after addition of lipid II” value [3] was “not inhibited”. The “LIVE/DEAD staining, membrane integrity of S. aureus cells” value (S. aureus ATCC 29213 [4]) was “had lysed” and the “MICs, range over Gram-negative pathogens” value [5] was 2 to 16 µg/mL.
With CN[C@H](CC(C)C)C(=O)N[C@H]1C(=O)N[C@@H](CC(N)=O)C(=O)N[C@H]2C(=O)N[C@H]3C(=O)N[C@H](C(=O)N[C@H](C(=O)O)c4cc(O)cc(O)c4-c4cc3ccc4O)[C@H](O)c3ccc(c(Cl)c3)Oc3cc2cc(c3O[C@@H]2O[C@H](CO)[C@@H](O)[C@H](O)[C@H]2O[C@H]2C[C@](C)(N)[C@H](O)[C@H](C)O2)Oc2ccc(cc2Cl)[C@H]1O [vancomycin, reference compound] the “growth of S. aureus USA300 (MRSA) after addition of lipid II” value [3] was “not inhibited”.
With polymyxin B the “LIVE/DEAD staining, membrane integrity of E. coli cells” value (E. coli ATCC 25922 [6]) was “death of half of the E. coli cells”.
